Consider 34 molecules from US5137905A, “Heterocyclic acetylenic amines having central nervous system activity” (The Upjohn Company, priority 1991, dated 1992).

Assay [1] concerns the target CNS cholinergic receptor. The conditions noted are these: read-out: CNS Cholinergic Receptor Binding Assays K1 QNB.
The target in assay [2] is CNS cholinergic receptor. Nature of the assay: CNS cholinergic receptor binding, oxotremorine M ligand. The conditions noted are these: tritiated oxotremorine M; read-out: CNS Cholinergic Receptor Binding Assays K1 Oxotremorine.
In assay [3] the test system is oxotremorine-induced body tremor. Nature of the assay: Oxotremorine antagonist assay (body tremor). Format: in vivo, mice. On the procedure: Oxotremorine antagonist assays were performed on groups of six mice weighing 18-22 g. Each was dosed intraperitoneally with the test compound prepared in 0.25% methylcellulose and were placed in individual cages. Twenty minutes later the mice were injected subcutaneously with 0.5 mg/kg of oxotremorine dissolved in saline. Ten minutes later the mice were scored for body tremor. Doses of the compound under study began at 100 mg/kg and were decreased at a 0.5 log interval until no responders were obtained.

The next assay concerns HCl-induced writhing. Kind of assay: HCl writhing protection (analgesic activity). It counts as in vivo, CF1 mice. The conditions noted are these: Mus musculus, sc; ED50; s.c. in CF1 mice, 30 min before i.p. 0.15% HCl; read-out: CNS Id (ED50 mg/kg) HCl Writh. Protect. Here is the method: For determination of analgesic activity, the test compound was injected subcutaneously into a group of four CF1 mice. Thirty minutes later the mice were injected i.p. with 0.15% HCl, 10 ml./kg. Mice were then placed in plastic boxes and observed for fifteen minutes to record the number of animals failing to writhe.
A general note: An intraperitoneal irritant provokes the stretching counted in writhing tests.

The mark [4] stands for this setting: tritiated quinuclidine benzylate (QNB).
Where [5] appears, read: Mus musculus, ip; read-out: Oxot. Antagonist Tremor (ED50).
The mark [6] stands for this setting: Mus musculus, ip, read-out: Oxot. Antagonist Tremor (ED50).

Read-outs that look alike come from different tables or passages of the source. Bounds are passed on as bounds.

With `CN1CCN(CC#CCN2CCCC2)C1=O` [Compound 1, 1-Methyl-3-[4-(1-pyrrolidinyl)-2-butynyl]-2-imidazolidinone], the Ki amounted to 180 nM at CNS cholinergic receptor [1] (setting [4]) and 2.7 nM on CNS cholinergic receptor [2]. Moreover, the values for the ED50 (in assay [3] (setting [5]); in the assay on HCl-induced writhing) were > 3 mg/kg and 0.2 mg/kg, respectively.
Take `CCN(CC)CC#CCn1ccn(C)c1=O` [Compound 4, 1-[4-(Diethylamino)-2-butynyl]-1,3-dihydro-3-methyl-2H-imidazol-2-one]: the Ki on CNS cholinergic receptor [1] (setting [4]) was > 10000 nM; at CNS cholinergic receptor [2] it was 563 nM. Also, in assay [3] (setting [5]), the ED50 is > 100 mg/kg.
The matching figures for `Cn1ccn(CC#CCn2ccnc2)c1=O` [Compound 6, 1,3-Dihydro-1-[4-(1H-imidazol-1-yl)-2-butynyl]-3-methyl-2H-imidazol-2-one]: > 10000 nM, 35 nM and > 100 mg/kg.
In the same order, the values of `Cc1cncn1CC#CCn1ccn(C)c1=O` [Compound 7, 1,3-Dihydro-1-methyl-3-[4-(5-methyl-1H-imidazol-1-yl)-2-butynyl]-2H-imidazol-2-one] are 614 nM, 39 nM and > 100 mg/kg.
Turning to `CC(C)(C)OC(=O)N1CCN(CC#CCN2CCCC2)C1=O` [Compound 8, t-Butyl 2-oxo-3-[4-(1-pyrrolidinyl)-2-butynyl]-1-imidazolidinecarboxylate], the Ki at CNS cholinergic receptor [1] (setting [4]) was determined as 2200 nM; on CNS cholinergic receptor [2] it was 130 nM. The ED50 in assay [3] (setting [5]) is > 100 mg/kg; in the assay with HCl-induced writhing, 25 mg/kg.
`O=C1NCCN1CC#CCN1CCCC1` [Compound 9, 1-[4-(1-Pyrrolidinyl)-2-butynyl]-2-imidazolidinone]: the Ki at CNS cholinergic receptor [1] (setting [4]) turned out to be 800 nM; at CNS cholinergic receptor [2], 13 nM. For the same molecule, the ED50 is > 3 mg/kg in assay [3] (setting [5]) and 2.2 mg/kg in the assay on HCl-induced writhing.
In the case of `CC1(C)CN(CC#CCN2CCCC2)C(=O)N1` [Compound 12, 4,4-Dimethyl-1-[4-(1-pyrrolidinyl)-2-butynyl]-2-imidazolidinone], on CNS cholinergic receptor [2], the Ki amounted to 820 nM. For the same molecule, the values for the ED50 (in assay [3] (setting [5]); with HCl-induced writhing) were > 100 mg/kg and > 50 mg/kg, respectively.
In the same order, the values of `CN1C(=O)N(CC#CCN2CCCC2)CC1(C)C` [Compound 13, 3,4,4-Trimethyl-1-[4-(1-pyrrolidinyl)-2-butynyl]-2-imidazolidinone] are > 10000 nM, > 100 mg/kg and 12.5 mg/kg.
For the molecule `CC(C#CCN1CCCC1)N1CCN(C)C1=O` (centres unmarked) [Compound 22, 1-Methyl-3-[1-methyl-4-(1-pyrrolidinyl)-2-butynyl]-2-imidazolidinone], the ED50 in assay [3] (setting [6]) amounted to 37 mg/kg.
Consider `CCN(CC)CC#CCN1CCNC1=O` [Compound 23, 1-[4-(Diethylamino)-2-butynyl]-2-imidazolidinone], for which the Ki is > 10000 nM at CNS cholinergic receptor [1] (setting [4]) and 425 nM at CNS cholinergic receptor [2]. Besides, in assay [3] (setting [5]), the ED50 is > 100 mg/kg.
Turning to `CCN(CC)CC#CCN1CCN(C)C1=O` [Compound 24, 1-[4-(Diethylamino)-2-butynyl]-3-methyl-2-imidazolidinone], the figures for the Ki at CNS cholinergic receptor [1] (setting [4]) and on CNS cholinergic receptor [2] were > 10000 nM and 132 nM, respectively. In assay [3] (setting [5]), the ED50 is > 100 mg/kg.
As to `O=C1NCCN1CC#CCn1ccnc1` [Compound 25, 1-[4-(1H-Imidazol-1-yl)-2-butynyl]-2-imidazolidinone], the results for the Ki at CNS cholinergic receptor [1] (setting [4]) and on CNS cholinergic receptor [2] were > 10000 nM and 62 nM, respectively. Further, the ED50 in assay [3] (setting [5]) is > 100 mg/kg.
The matching figures for `CC(=O)N1CCN(CC#CCn2cncc2C)C1=O` [Compound 26, 1-Acetyl-3-[4-(5-methyl-1H-imidazol-1-yl)-2-butynyl]-2-imidazolidinone]: > 10000 nM, 147 nM and 45 mg/kg.
Regarding `Cc1cncn1CC#CCN1CCNC1=O` [Compound 27, 1-[4-(5-Methyl-1H-imidazol-1-yl)-2-butynyl]-2-imidazolidinone], the results for the Ki on CNS cholinergic receptor [1] (setting [4]) and at CNS cholinergic receptor [2] were > 10000 nM and 138 nM, respectively. Further, in assay [3] (setting [5]), the ED50 was > 100 mg/kg.
With `CN1CCN(CC#CCn2ccnc2)C1=O` [Compound 28, 1-[4-(1H-Imidazol-1-yl)-2-butynyl]-3-methyl-2-imidazolidinone], the Ki on CNS cholinergic receptor [1] stood at 1870 nM; on CNS cholinergic receptor [2], 2 nM. Besides, in assay [3] (setting [6]), the ED50 is > 100 mg/kg.
On to `Cc1cncn1CC#CCN1CCN(C)C1=O` [Compound 29, 1-Methyl-3-[4-(5-methyl-1H-imidazol-1-yl)-2-butynyl]-2-imidazolidinone], for which the Ki at CNS cholinergic receptor [1] (setting [4]) was determined as 381 nM; on CNS cholinergic receptor [2] it was 9 nM. Also, the ED50 in assay [3] (setting [5]) was > 100 mg/kg.
In the same order, the values of `CCN1CCN(CC#CCN2CCCC2)C1=O` [Compound 30, 1-Ethyl-3-[4-(1-pyrrolidinyl)-2-butynyl]-2-imidazolidinone] are > 10000 nM, 697 nM and > 30 mg/kg.
The matching figures for `CC(C#CCN1CCCC1)N1CCNC1=O` (centres unmarked) [Compound 31, 1-[1-Methyl-4-(1-pyrrolidinyl)-2-butynyl]-2-imidazolidinone]: 135 nM, 15 nM and > 30 mg/kg.
In the same order, the values of `CC(C#CCN(C)C)N1CCN(C)C1=O` (centres unmarked) [Compound 32, 1-[4-(Dimethylamino)-1-methyl-2-butynyl]-3-methyl-2-imidazolidinone] are > 10000 nM, 33 nM and > 100 mg/kg.
For `CN(C)CC#CCN1CCNC1=O` [Compound 33, 1-[4-(Dimethylamino)-2-butynyl]-2-imidazolidinone], the Ki was > 10000 nM on CNS cholinergic receptor [1] (setting [4]) and 43 nM at CNS cholinergic receptor [2]. In assay [3] (setting [5]), the ED50 is > 100 mg/kg.
In the same order, the values of `CCN(CC)CC#CC(C)N1CCN(C)C1=O` (centres unmarked) [Compound 34, 1-[4-(Diethylamino)-1-methyl-2-butynyl]-3-methyl-2-imidazolidinone] are 1980 nM, 165 nM and > 100 mg/kg.
Turning to `CC(C#CCn1ccnc1)N1CCN(C)C1=O` (centres unmarked) [Compound 35, 3-[4-(1H-Imidazol-1-yl)-1-methyl-2-butynyl]-1-methyl-2-imidazolidinone], the Ki at CNS cholinergic receptor [1] (setting [4]) came to 4010 nM; at CNS cholinergic receptor [2] it was 120 nM. Moreover, the ED50 in assay [3] (setting [5]) is > 100 mg/kg.
`CN(C)CC#CCn1ccn(C)c1=O` [Compound 37, 1,3-Dihydro-1-[4-(dimethylamino)-2-butynyl]-3-methyl-2H-imidazol-2-one]: the Ki on CNS cholinergic receptor [1] (setting [4]) is > 10000 nM; on CNS cholinergic receptor [2] it was 37 nM. Besides, the ED50 in assay [3] (setting [5]) is > 100 mg/kg.
The matching figures for `O=c1[nH]ccn1CC#CCN1CCCC1` [Compound 38, 1,3-Dihydro-1-[4-(1-pyrrolidinyl)-2-butynyl]-2H-imidazol-2-one]: > 10000 nM, 33 nM and > 2 mg/kg.
The matching figures for `CC(C#CCN1CCCC1)n1ccn(C)c1=O` (centres unmarked) [Compound 39, 1,3-Dihydro-1-methyl-3-[1-methyl-4-(1-pyrrolidinyl)-2-butynyl]-2H-imidazol-2-one]: 88 nM, 9 nM and > 30 mg/kg.
The matching figures for `CC(C#CCN(C)C)n1ccn(C)c1=O` (centres unmarked) [Compound 40, 1,3-Dihydro-1-methyl-3-[4-(dimethylamino)-1-methyl-2-butynyl]-2H-imidazol-2-one]: > 10000 nM, 136 nM and > 100 mg/kg.
`CN(C)CC#CCN1C(=O)CN(C)C1=O` [Compound 41, 3-[4-(Dimethylamino)-2-butynyl]-1-methyl-2,4-imidazolidinedione]: the values for the Ki on CNS cholinergic receptor [1] (setting [4]) and at CNS cholinergic receptor [2] were > 10000 nM and 86 nM, respectively.
Regarding `CN1CCCN(CC#CCN2CCCC2)C1=O` [Compound 42, Tetrahydro-1-methyl-3-[4-(1-pyrrolidinyl)-2-butynyl]-2(1H)-pyrimidinone], the Ki was found to be 1580 nM at CNS cholinergic receptor [1] (setting [4]) and 229 nM on CNS cholinergic receptor [2]. For the same molecule, the ED50 in assay [3] (setting [5]) is > 30 mg/kg.
In the same order, the values of `CN1C(=O)CN(CC#CCN2CCCC2)C1=O` [Compound 43, 3-Methyl-1-[4-(1-pyrrolidinyl)-2-butynyl]-2,4-imidazolidinedione] are > 10000 nM, 364 nM and > 100 mg/kg.
In the same order, the values of `CN1CC(=O)N(CC#CCN2CCCC2)C1=O` [Compound 44, 1-Methyl-3-[4-(1-pyrrolidinyl)-2-butynyl]-2,4-imidazolidinedione] are 8710 nM, 20 nM and > 30 mg/kg.
On to `C(#C[C@H]1CCCN1)CN1CCCC1` [Compound 50A, (R)-1-[3-(2-pyrrolidinyl)-2-propynyl]pyrrolidine], for which the values for the Ki at CNS cholinergic receptor [1] (setting [4]) and on CNS cholinergic receptor [2] were 4800 nM and 260 nM, respectively. Also, the ED50 in assay [3] (setting [5]) is > 100 mg/kg.
Turning to `C(#C[C@@H]1CCCN1)CN1CCCC1` [Compound 50B, (S)-1-[3-(2-pyrrolidinyl)-2-propynyl]pyrrolidine], the Ki on CNS cholinergic receptor [1] (setting [4]) is > 10000 nM; at CNS cholinergic receptor [2], 1300 nM.
For `CC(=O)N1CCC[C@@H]1C#CCN1CCCC1` [Compound 51A, (R)-1-Acetyl-2-[3-(1-pyrrolidinyl)-1-propynyl]pyrrolidine], at CNS cholinergic receptor [1] (setting [4]), the Ki was found to be 120 nM. Further, the ED50 in assay [3] (setting [5]) was 3 mg/kg; in the assay on HCl-induced writhing it was > 50 mg/kg.
For the molecule `CC(=O)N1CCC[C@H]1C#CCN1CCCC1` [Compound 51B, (S)-1-Acetyl-2-[3-(1-pyrrolidinyl)-1-propynyl]pyrrolidine], the Ki was 2300 nM at CNS cholinergic receptor [1] (setting [4]) and 370 nM on CNS cholinergic receptor [2]. In assay [3] (setting [5]), the ED50 was > 30 mg/kg.
